Assay results published in patent US11180452B2, “Methods and compositions for selectively inhibiting pathogenic microbes” (priority 2019, dated 2021).
Converted amounts (≈) assume the structure as drawn. Read-outs that look alike come from different tables or passages of the source.

Key:
Bacillus thuringiensis = assay type: cell-based; details: Bacillus thuringiensis Berliner ATCC: 10792; for MIC: Bacillus thuringiensis, read-out: MIC
NoSpin HepaRG cells = assay: HepaRG cytotoxicity, MTT assay EC50; assay type: cell-based, human; details: Homo sapiens, HepaRG; cytotoxicity EC50, Table 9
Procedure: Additionally, the antimicrobial compounds were analyzed for cytotoxicity. […] We utilized the standard MTT assay (Promega CellTiter 96) and GraphPad Prism 7 software to determine EC50 values for each analogue. Briefly, 20,000 HepG2 cells in 200 μl of the ATCC recommended media were seeded in each well of a 96-well plate with a moisture barrier created in the outermost wells. The cells were allowed to attach overnight at 37° C., and then observed under phase contrast microscopy for proper morphological characteristics. […] Once incubations were complete, the spectrophotometric absorbance of the samples was measured at a wavelength of 595 nm. […] For the HepaRG assay, NoSpin HepaRG™ cells (Lonza, cat #NSHPRG) were thawed and plated with 20,000 cells per well. They were allowed to attach for 4 h (optimal DME profile per Lonza's testing) before dosing following the identical protocol as above.

Bacillus subtilis = Bacillus subtilis MIC / MBC; assay type: cell-based; details: for MBC: Bacillus subtilis NRRL: B-571, minimum bactericidal concentration; for MIC: Bacillus subtilis, Bacillus subtilis (Ehrenberg 1835) Cohn 1872 NRRL: B-571, read-out: MIC
[1] = test system: Burkholderia thailandensis Brett et al ATCC: 700388; assay: microbe, parasite or virus in culture; assay type: cell-based
Candida glabrata = Candida glabrata MIC / MFC; assay type: cell-based; details: Nakaseomyces glabratus; for MIC: read-out: MIC
Trichophyton rubrum = assay: MIC against Trichophyton rubrum; assay type: cell-based; details: Trichophyton rubrum Castellani Sabouraud ATCC: 28188; read-out: MIC
[2] = test system: Francisella tularensis subsp. Holarctica Strain LVSR NR-597; assay: microbe, parasite or virus in culture; assay type: cell-based
C. albicans = assay: Candida albicans MIC / MFC; assay type: cell-based
[3] = Candida glabrata #584 (Table 2)

| Compound | MBC (Bacillus thuringiensis) [µg/mL] | MIC (Bacillus thuringiensis) [µg/mL] | EC50 (NoSpin HepaRG cells) [µg/mL] | MBC (Bacillus subtilis) [µg/mL] | MIC (Bacillus subtilis) [µg/mL] | MIC [1] [µg/mL] | MFC (Candida glabrata; Candida glabrata #584 (Table 2), minimum fungicidal concentration, read-out: MFC) [µg/mL] | MIC (Candida glabrata; [3]) [µg/mL] | MIC (Trichophyton rubrum) [µg/mL] | MIC [2] [µg/mL] | MIC (C. albicans; C. albicans strain #761, read-out: MIC) [µg/mL] | MIC (C. albicans; C. albicans strain #762, read-out: MIC) [µg/mL] | MIC (Candida glabrata; C. glabrata strain #325) [µg/mL] | MIC (Candida glabrata; C. glabrata strain #584 (Table 7)) [µg/mL] | MBC [1] [µg/mL] |
| --- | --- | --- | --- | --- | --- | --- | --- | --- | --- | --- | --- | --- | --- | --- | --- |
| Clc1ccc(Sc2c[nH]c3ccc(Br)cc23)cc1 [Compound 174J, 5-bromo-3-((4-chlorophenyl)thio)-1H-indole] | 1.56 (≈ 4.61 µM) | 1.56 (≈ 4.61 µM) | 25.3 (≈ 74.7 µM) | 3.13 (≈ 9.24 µM) | 1.56 (≈ 4.61 µM) | > 50 | > 50 | 6.25 (≈ 18.5 µM) | 1.05 (≈ 3.1 µM) |  |  |  |  |  |  |
| Brc1ccc(Sc2c[nH]c3ccccc23)cc1 [Compound 174U, 3-((4-bromophenyl)thio)-1H-indole] | 12.5 (≈ 41.1 µM) | 12.5 (≈ 41.1 µM) |  | > 10 | > 50 | > 50 |  | > 50 | 0.95 (≈ 3.12 µM) | 1.56 (≈ 5.13 µM) |  |  |  |  |  |
| Clc1ccc(Sc2c[nH]c3ccc(Br)cc23)cc1Cl [Compound 174W, 5-bromo-3-((3,4-dichlorophenyl)thio)-1H-indole] | 5 (≈ 13.4 µM) | 1.25 (≈ 3.35 µM) |  | > 10 | 1.25 (≈ 3.35 µM) | > 50 |  | 25 (≈ 67 µM) | 1.16 (≈ 3.11 µM) |  | > 50 | > 50 | > 50 | 25 (≈ 67 µM) |  |
| Oc1ccc(Sc2c[nH]c3ccc(C(F)(F)F)cc23)cc1 [Compound 177B, 4-((5-(trifluoromethyl)-1H-indol-3-yl)thio)phenol] |  |  | 27.7 (≈ 89.6 µM) |  | 1.56 (≈ 5.04 µM) | 25 (≈ 80.8 µM) |  | > 50 |  | 3.13 (≈ 10.1 µM) |  |  |  |  | > 50 |
| Fc1ccccc1Sc1c[nH]c2ccc(C(F)(F)F)cc12 [Compound 177D, 3-((2-fluorophenyl)thio)-5-(trifluoromethyl)-1H-indole] |  |  | 27.1 (≈ 87.1 µM) |  | 1.56 (≈ 5.01 µM) | > 50 |  | 25 (≈ 80.3 µM) |  | 0.78 (≈ 2.51 µM) |  |  |  |  | > 50 |
| Fc1ccc2[nH]cc(Sc3ccccc3Br)c2c1 [Compound 177E, 3-((2-bromophenyl)thio)-5-fluoro-1H-indole] |  |  | 31.6 (≈ 98.1 µM) |  | 1.56 (≈ 4.84 µM) | > 50 |  | 25 (≈ 77.6 µM) |  | 0.78 (≈ 2.42 µM) |  |  |  |  | > 50 |
| FC(F)(F)c1ccc2[nH]cc(Sc3ccccc3C(F)(F)F)c2c1 [Compound 177F, 5-(trifluoromethyl)-3-((2-(trifluoromethyl)phenyl)thio)-1H-indole] |  |  | 29.8 (≈ 82.5 µM) |  | 1.56 (≈ 4.32 µM) | > 50 |  | 50 (≈ 138 µM) |  | 1.56 (≈ 4.32 µM) |  |  |  |  | > 50 |
| CCc1ccccc1Sc1c[nH]c2ccc(C(F)(F)F)cc12 [Compound 177G, 3-((2-ethylphenyl)thio)-5-(trifluoromethyl)-1H-indole] |  |  | 29.5 (≈ 91.8 µM) |  | 1.56 (≈ 4.85 µM) | > 50 |  | > 50 |  | 0.78 (≈ 2.43 µM) |  |  |  |  | > 50 |
| OCc1[nH]c2ccc(Br)cc2c1Sc1ccccc1Br [Compound 177H, (5-bromo-3-((2-bromophenyl)thio)-1H-indol-2-yl)methanol] |  |  | 31.8 (≈ 77 µM) |  | 1.56 (≈ 3.78 µM) | > 50 |  | 50 (≈ 121 µM) |  | 3.13 (≈ 7.58 µM) |  |  |  |  | > 50 |
| CCc1ccccc1Sc1c(CO)[nH]c2ccc(C(F)(F)F)cc12 [Compound 177I, (3-((2-ethylphenyl)thio)-5-(trifluoromethyl)-1H-indol-2-yl)methanol] |  |  | 31.3 (≈ 89.1 µM) |  | 3.13 (≈ 8.91 µM) | > 50 |  | > 50 |  | 3.13 (≈ 8.91 µM) |  |  |  |  | > 50 |
